Publication PMC6556873, “Rapid Covalent-Probe Discovery by Electrophile-Fragment Screening” (Journal of the American Chemical Society, 2019)
Where two headings read alike, the source gives them in different places.

Legend:
[1] = target: T1, NNMT (hNNMT) (Homo sapiens, UniProt P40261); set-up: Intact protein LC/MS covalent labelling, fragments in pools of five, 200 uM each, 4 °C; conditions: 24 h, 4 °C, pool of five; 200 µM; covalent
T1 construct: wild type, N-terminal His6 tag kept (no cleavage described), E. coli, construct 31248 Da
T1 sequence (P40261 1-264): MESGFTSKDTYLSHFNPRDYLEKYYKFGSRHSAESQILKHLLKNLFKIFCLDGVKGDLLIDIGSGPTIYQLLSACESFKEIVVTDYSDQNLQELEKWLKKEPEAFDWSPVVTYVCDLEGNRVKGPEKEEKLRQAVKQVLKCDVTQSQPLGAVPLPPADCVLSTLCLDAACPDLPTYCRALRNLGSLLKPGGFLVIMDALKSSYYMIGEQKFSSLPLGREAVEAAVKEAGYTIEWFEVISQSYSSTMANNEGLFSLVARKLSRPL

[2] = target: T2, NUDT7 (Homo sapiens, UniProt P0C024); set-up: Intact protein LC/MS covalent labelling, fragments in pools of five, 200 uM each, 4 °C; conditions: 24 h, 4 °C, pool of five; 200 µM; covalent
T2 construct: residues 14-235, E. coli, pNIC28-Bsa4, N-terminal His6 tag removed by TEV, construct 26672 Da
T2 sequence (P0C024 14-235): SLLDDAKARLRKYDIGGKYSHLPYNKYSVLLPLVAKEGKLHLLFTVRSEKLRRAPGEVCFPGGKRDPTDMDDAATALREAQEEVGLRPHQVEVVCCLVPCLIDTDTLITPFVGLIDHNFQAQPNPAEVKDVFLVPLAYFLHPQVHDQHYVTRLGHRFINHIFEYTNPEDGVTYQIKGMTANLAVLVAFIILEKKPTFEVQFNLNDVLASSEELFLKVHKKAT

[3] = target: T3, OTUB2 (OTUB2A) (Homo sapiens, UniProt Q96DC9); set-up: Intact protein LC/MS covalent labelling, fragments in pools of five, 200 uM each, 4 °C; conditions: 24 h, 4 °C, pool of five; 200 µM; covalent
T3 construct: full length residues 1-234, E. coli BL21(DE3)-R3, His tag removed by TEV, construct 27312 Da
T3 sequence (Q96DC9 1-234): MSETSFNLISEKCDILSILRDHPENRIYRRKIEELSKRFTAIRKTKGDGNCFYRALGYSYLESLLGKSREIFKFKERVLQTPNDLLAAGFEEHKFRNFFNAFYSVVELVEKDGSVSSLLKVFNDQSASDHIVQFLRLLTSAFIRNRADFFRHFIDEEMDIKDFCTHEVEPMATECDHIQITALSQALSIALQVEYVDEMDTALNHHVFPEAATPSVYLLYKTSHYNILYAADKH

[4] = target: T4, PCAF (Homo sapiens, UniProt Q92831); set-up: Intact protein LC/MS covalent labelling, fragments in pools of five, 200 uM each, 4 °C; conditions: 24 h, 4 °C, pool of five; 200 µM; covalent
T4 construct: gene KAT2B
T4 sequence (Q92831 whole entry, the tested form may be a part): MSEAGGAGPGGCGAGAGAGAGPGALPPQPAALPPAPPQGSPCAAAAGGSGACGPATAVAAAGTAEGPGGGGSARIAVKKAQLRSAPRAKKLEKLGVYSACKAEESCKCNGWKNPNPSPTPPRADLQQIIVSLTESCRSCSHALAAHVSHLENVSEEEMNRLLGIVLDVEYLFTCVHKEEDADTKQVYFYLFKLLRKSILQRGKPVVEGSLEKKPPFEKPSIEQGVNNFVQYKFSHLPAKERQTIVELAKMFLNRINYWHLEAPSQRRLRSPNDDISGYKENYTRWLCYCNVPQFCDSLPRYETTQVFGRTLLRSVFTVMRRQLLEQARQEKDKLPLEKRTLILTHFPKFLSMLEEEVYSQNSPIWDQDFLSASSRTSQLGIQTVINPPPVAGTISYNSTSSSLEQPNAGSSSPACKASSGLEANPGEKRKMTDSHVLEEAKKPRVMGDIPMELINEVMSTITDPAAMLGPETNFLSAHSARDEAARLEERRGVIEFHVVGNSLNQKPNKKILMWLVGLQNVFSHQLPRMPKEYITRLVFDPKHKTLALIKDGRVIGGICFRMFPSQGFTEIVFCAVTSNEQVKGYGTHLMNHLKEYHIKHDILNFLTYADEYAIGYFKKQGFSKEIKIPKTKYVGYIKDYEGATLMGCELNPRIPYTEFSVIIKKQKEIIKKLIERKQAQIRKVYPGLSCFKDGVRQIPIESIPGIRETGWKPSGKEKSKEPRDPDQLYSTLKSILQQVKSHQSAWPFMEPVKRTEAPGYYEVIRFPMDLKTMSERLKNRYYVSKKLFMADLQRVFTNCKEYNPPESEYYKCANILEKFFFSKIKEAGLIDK

[5] = target: T5, BSA (Bos taurus, UniProt P02769); set-up: Intact protein LC/MS covalent labelling, fragments in pools of five, 200 uM each, 4 °C; conditions: 24 h, 4 °C, pool of five; 200 µM; covalent
T5 construct: gene ALB
T5 sequence (P02769 whole entry, the tested form may be a part): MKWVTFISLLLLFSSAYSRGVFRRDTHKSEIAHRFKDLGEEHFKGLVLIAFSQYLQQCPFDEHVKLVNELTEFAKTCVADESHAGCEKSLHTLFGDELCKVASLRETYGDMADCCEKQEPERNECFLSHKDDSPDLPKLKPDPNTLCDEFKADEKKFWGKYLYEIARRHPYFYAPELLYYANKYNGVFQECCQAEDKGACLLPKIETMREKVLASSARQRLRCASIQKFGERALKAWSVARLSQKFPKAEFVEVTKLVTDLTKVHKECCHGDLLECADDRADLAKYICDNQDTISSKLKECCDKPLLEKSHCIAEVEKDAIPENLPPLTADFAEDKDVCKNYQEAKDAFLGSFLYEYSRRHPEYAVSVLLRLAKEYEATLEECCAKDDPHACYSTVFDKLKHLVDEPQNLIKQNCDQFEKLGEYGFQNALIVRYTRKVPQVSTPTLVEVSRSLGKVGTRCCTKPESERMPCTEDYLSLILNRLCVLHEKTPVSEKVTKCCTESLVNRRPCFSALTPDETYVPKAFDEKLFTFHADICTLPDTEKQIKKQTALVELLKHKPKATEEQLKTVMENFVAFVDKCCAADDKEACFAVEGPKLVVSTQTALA

[6] = in vitro; set-up: species or system CCD841, HEK293; conditions: human, hb2 cells, read-out: HB-2 Cells Viability (%)
[7] = in vitro; set-up: species or system HB2, CCD841; conditions: human, hek293 cells
[8] = in vitro; set-up: species or system HB2, HEK293; conditions: human, ccd841 cells

Row | SMILES | NNMT [1] | NUDT7 [2] | OTUB2 [3] | PCAF [4] | BSA [5] | viability at 48 h, 10 µM [6] [%] | viability at 48 h, 10 µM [7] [%] | viability at 48 h, 10 µM [8] [%]
1 | O=C(CCl)Nc1oncc1-c1ccccc1 [PCM-0102746] | 0.87 | 0 | 0.64 | 0 | 0 | 72.1 | 73.3 | 71.8
2 | CN(Cc1cccc(F)c1)C(=O)CCl [PCM-0102747] | 0 | 0 | 0 | 0 | 0 | 64.5 | 46.1 | 73.1
3 | O=C(CCl)N1CCOCC1 [PCM-0102749] | 0 | 0 | 0 | 0 | 0 | 98.7 | 97.6 | 109
4 | O=C(CCl)N1CCCCCC1 [PCM-0102751] | 0 | 0 | 0 | 0 | 0 | 99.5 | 73.7 | 85.6
5 | C=CC(=O)N(C)CC1CCn2ccnc2C1 (centres unmarked) [PCM-0102752] | 0 | 0 | 0 | 0 | 0 | 97.7 | 88.4 | 122
6 | O=C(CCl)NC(=O)NCc1cccs1 [PCM-0102753] | 0.55 | 0 | 0.23 | 0 | 0 | 61.5 | 55.8 | 71.1
7 | CC(NC(=O)CCl)C(=O)N(C)C (centres unmarked) [PCM-0102754] | 0 | 0 | 0 | 0 | 0 | 96 | 83.7 | 101
8 | O=C(CCl)N(c1ccccc1)C1CCS(=O)(=O)C1 (centres unmarked) [PCM-0102755] | 0 | 0.17 | 0 | 0 | 0 | 28.5 | 16.7 | 20.4
9 | COc1ccc(Cl)cc1C(=O)NNC(=O)CCl [PCM-0102763] | 0 | 0.1 | 0.64 | 0 | 0 | 73.6 | 25.1 | 13.4
10 | C=CC(=O)N1CCCc2c([nH]c3c(F)cccc23)C1 [PCM-0102767] | 0 | 0 | 0 | 0 | 0.1 | 89.2 | 96 | 96.6
11 | CC(C)(C)C(NC(=O)CCl)c1cccs1 (centres unmarked) [PCM-0102773] | 0 | 0.09 | 0 | 0 | 0 | 86.9 | 63.6 | 72.8
12 | O=C(CCl)NNC(=O)C1CC1 [PCM-0102776] | 0 | 0 | 0.23 | 0 | 0 | 93.1 | 90.2 | 88.4
13 | O=C(CCl)N1CCc2ccc([N+](=O)[O-])cc21 [PCM-0102777] | 0.61 | 0 | 0 | 0 | 0 | 1.7 | 17.9 | 2.6
14 | O=C(CCl)Nc1nnn[nH]1 [PCM-0102778] | 0 | 0 | 0.3 | 0 | 0 | 102 | 120 | 102
15 | O=C(CCl)Nc1nnc(CC(F)(F)F)o1 [PCM-0102779] | 0.24 | 0 | 0 | 0 | 0 | 106 | 102 | 99.9
16 | O=C(CCl)N1CCC(C(=O)N2CCCCCC2)CC1 [PCM-0102781] | 0 | 0 | 0 | 0 | 0 | 90.6 | 63.8 | 92.5
17 | O=C(CCl)Nc1nc(-c2cccs2)cs1 [PCM-0102784] | 0.71 | 0.77 | 0.07 | 0 | 0 | 39.8 | 41.3 | 84.9
18 | COC(=O)NC(=O)CCl [PCM-0102791] | 0 | 0 | 0.09 | 0 | 0 | 106 | 94.3 | 123
19 | O=C(CCl)NC(=O)c1ccc[nH]1 [PCM-0102795] | 0 | 0 | 0 | 0 | 0 | 96.2 | 149 | 100

More lines, main results first:

Row | NNMT [1] | NUDT7 [2] | OTUB2 [3] | PCAF [4] | BSA [5] | SMILES | viability at 48 h, 10 µM [6] [%] | viability at 48 h, 10 µM [7] [%] | viability at 48 h, 10 µM [8] [%]
20 | 0 | 0.15 | 0 | 0 | 0 | O=C(CCl)Nc1cccc(Cl)c1Cl [PCM-0102797] | 44.2 | 40.9 | 72.2
21 | 0 | 0.14 | 0.19 | 0 | 0 | CC(NC(=O)CCl)c1ccco1 (centres unmarked) [PCM-0102798] | 95.8 | 88.4 | 97.1
22 | 0.39 | 0.24 | 0.61 | 0 | 0 | Cc1cc(Br)ccc1NC(=O)CCl [PCM-0102799] | 34.9 | 4.7 | 63.3
23 | 0 | 0.19 | 0.16 | 0 | 0 | O=C(CCl)NC1c2ccccc2-c2ccccc21 [PCM-0102802] | 61.8 | 58.9 | 82.7
24 | 0 | 0 | 0.29 | 0 | 0 | NS(=O)(=O)c1ccc(NC(=O)CCl)cc1 [PCM-0102807] | 53.8 | 8 | 56.9
25 | 0 | 0.06 | 0 | 0 | 0 | C=CC(=O)N1CCC(c2noc(C3CC3)n2)CC1 [PCM-0102810] | 103 | 94.1 | 103
26 | 0 | 0 | 0 | 0 | 0 | C#CCN1CCN(C(=O)CCl)CC1.Cl [PCM-0102811] | 92.5 | 72.2 | 84.9
27 | 0 | 0.13 | 0.14 | 0 | 0 | C#Cc1cccc(NC(=O)NC(=O)CCl)c1 [PCM-0102813] | 74.1 | 73.2 | 82.2
28 | 0.24 | 0 | 0 | 0 | 0.11 | Cl.O=C(CCl)N1CCN(Cc2ccc3c(c2)CCO3)CC1 [PCM-0102814] | 22.2 | 37.6 | 58.5
